Where a name gives a salt, the structure may show the parent alone.
What was measured:
Assay type in all cases: biochemical
[1] = molecular target: T1, human neutrophil elastase (HNE) (Homo sapiens, UniProt P08246); test: Specificity assay, human neutrophil elastase; details: 2 hr pre-incubation, read-out: HLE
T1 construct: purchased Sigma
T1 sequence (P08246 30-267): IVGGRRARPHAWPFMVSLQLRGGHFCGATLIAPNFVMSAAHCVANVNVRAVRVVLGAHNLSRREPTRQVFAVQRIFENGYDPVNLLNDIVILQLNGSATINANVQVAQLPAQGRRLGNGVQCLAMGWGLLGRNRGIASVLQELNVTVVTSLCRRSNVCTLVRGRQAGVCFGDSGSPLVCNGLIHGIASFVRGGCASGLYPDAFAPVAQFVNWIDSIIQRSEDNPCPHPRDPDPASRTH
Protocol: (§1) The specificities of compounds of the present invention were determined against a variety of serine proteases: human neutrophil elastase (HNE), porcine pancreatic elastase (PPE) and human pancreatic chymotrypsin and one cysteine protease: human liver cathepsin B. In all cases a 96-well plate format protocol using colorimetric p-nitroaniline (pNA) substrate specific for each enzyme was used as described previously (U.S. Pat. No. 6,323,180) with some modifications to the serine protease assays. All enzymes were purchased from Sigma while the substrates were from Bachem.
(§2) Each assay included a 2 hr enzyme-inhibitor pre-incubation at RT followed by addition of substrate and hydrolysis to ˜30% conversion as measured on a Spectramax Pro microplate reader. Compound concentrations varied from 100 to 0.4 μM depending on their potency. […]
(§3) The percentage of inhibition was calculated using the formula: [1−((UVinh−UVblank)/(UVctl−UVblank))]×100 […]

[2] = molecular target: T2, porcine pancreatic elastase (PPE) (Sus scrofa, UniProt P00772); test: Specificity assay, porcine pancreatic elastase; details: 2 hr pre-incubation
T2 construct: purchased Sigma
Protocol: as §1, §2, §3

[3] = test system: human pancreatic chymotrypsin; test: Specificity assay, chymotrypsin; details: 2 hr pre-incubation
Protocol: as §1, §2, §3

T2 sequence (P00772 27-266): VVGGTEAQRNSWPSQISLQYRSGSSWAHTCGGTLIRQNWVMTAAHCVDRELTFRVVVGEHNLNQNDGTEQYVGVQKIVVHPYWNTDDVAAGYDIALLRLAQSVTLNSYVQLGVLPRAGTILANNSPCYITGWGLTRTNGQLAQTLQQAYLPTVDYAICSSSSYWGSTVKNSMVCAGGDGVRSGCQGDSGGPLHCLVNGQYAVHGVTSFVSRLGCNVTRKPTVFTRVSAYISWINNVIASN

SMILES: COc1ccc2c(O[C@@H]3C[C@H]4C(=O)N[C@]5(C(=O)NS(=O)(=O)C6CC6)CC5/C=C/CCCC[C@H](N)C(=O)N4C3)cc(-c3ccccc3)nc2c1 (stereo partly drawn) [Compound 6, (1S,4R,6S,13S,17R)-7-trans-Cyclopropanesulfonic acid [13-amino-17-(7-methoxy-2-phenylquinolin-4-yloxy)-2,14-dioxo-3,15-diazatricyclo[13.3.0.0^4,6]octadec-7-ene-4-carbonyl]amide dihydrochloride]
- IC50 [1]: 30 µM
- IC50 [2]: > 100 µM
- IC50 [3]: > 100 µM
